According to patent US20050282755A1, “Compositions having antimicrobial activity and uses thereof” (priority 2004, published 2005):
Converted amounts (≈) assume the structure as drawn. Non-standard residues stand in square brackets, D forms with d. Residues, ends and D or L forms follow the SMILES beside them. *: point of attachment. Palmitoyl = CCCCCCCCCCCCCCCC(=O)*; Lauroyl = CCCCCCCCCCCC(=O)*

What was measured:
Type in all cases: cell-based
[1] = system: Staphylococcus aureus ATCC 29213; experiment: MIC, NCCLS M7-A6 broth microdilution, cation-adjusted Mueller Hinton broth (Table 9, no superscript); conditions: ATCC 29213
How it was run: (§1)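 Broth microdilution in cation-adjusted Mueller Hinton broth, log-phase inoculum giving 5×10^5 to 1×10^6 CFU/milliliter per well. Overnight incubation at 37° C. MIC taken as lowest peptide concentration with no visible turbidity versus a no-peptide control.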

[2] = system: Escherichia coli ATCC 25922; experiment: MIC, NCCLS M7-A6 broth microdilution (Table 9, no superscript); conditions: ATCC 25922
How it was run: as §1

[3] = system: Pseudomonas aeruginosa ATCC 27853; experiment: as above; conditions: ATCC 27853
How it was run: as §1

Salmonella dublin (Lane) = experiment: as above
How it was run: as §1

[4] = system: Staphylococcus epidermidis ATCC 12228; experiment: as above; conditions: ATCC 12228
How it was run: as §1

[5] = system: Propionibacterium acnes ATCC 6919; experiment: MIC, agar dilution method NCCLS M11-A6, Brucella agar, anaerobic (Table 9, superscript c); conditions: ATCC 6919
How it was run: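 Agar dilution per NCCLS M11-A6 on Brucella agar; final inoculum 1.5×10^8 CFU/milliliter applied to plates, incubated 48-96 hours at 37° C. under anaerobic (GasPak) conditions. MIC = lowest peptide concentration with no colony growth.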

[6] = system: Candida albicans ATCC 18804; experiment: MIC in yeasts, NCCLS M27-A2 broth microdilution, RPMI 1640 (Table 9, letter e); conditions: ATCC 18804
How it was run: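 Broth microdilution per NCCLS M27-A2 in RPMI 1640 with glutamine and phenol red, final inoculum 0.5×10^3–2.5×10^3 CFU/milliliter. Incubated 24 to 48 hours at 37° C; MIC is the lowest peptide concentration with no visible growth.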

MIC S. aureus [1] | MIC E. coli [2] | MIC P. aeruginosa [3] | MIC S. dublin (Salmonella dublin (Lane)) | MIC S. epidermidis [4] | MIC P. acnes [5] | MIC C. albicans [6] | Compound
8 µg/mL (≈ 2.99 µM) | 8 µg/mL (≈ 2.99 µM) | 8 µg/mL (≈ 2.99 µM) | 8 µg/mL (≈ 2.99 µM) | 1 µg/mL (≈ 0.374 µM) | 32c ug/mL | 8e ug/mL | CCCCCCCCCCCC(=O)N[C@@H](C(=O)N[C@H](CCCNC(=N)N)C(=O)N[C@@H](C(=O)N[C@H](C)C(=O)N[C@H](CCCNC(=N)N)C(=O)N[C@@H](C(=O)NCC(=O)N[C@H](CCCNC(=N)N)C(=O)N[C@H](CO)C(=O)N[C@H](CCCNC(=N)N)C(=O)N[C@H](Cc1c[nH]c2ccccc12)C(=O)N[C@H](CCCNC(=N)N)C(=O)N[C@H](CC(=O)O)C(=O)N[C@@H](C(=O)N[C@H](C)C(=O)N[C@H](CCCNC(=N)N)C(=O)N[C@H](CC(N)=O)C(=O)N[C@H](Cc1ccccc1)C(=O)N[C@H](CCSC)C(=O)N[C@H](CCCNC(=N)N)C(N)=O)C(C)C)[C@H](C)O)C(C)C)[C@H](C)O [Peptide 78, Lauryl-trvartgrsrwrdvarnfmr-NH2] (Lauroyl-[dT][dR][dV][dA][dR][dT]G[dR][dS][dR][dW][dR][dD][dV][dA][dR][dN][dF][dM][dR]-NH2)
16 µg/mL (≈ 11.9 µM) | 32 µg/mL (≈ 23.8 µM) | 32 µg/mL (≈ 23.8 µM) | 32 µg/mL (≈ 23.8 µM) | 8 µg/mL (≈ 5.94 µM) | 16c ug/mL | 32e ug/mL | CCCCCCCCCCCC(=O)N[C@H](CCCNC(=N)N)C(=O)N[C@H](CC(=O)O)C(=O)N[C@@H](C(=O)N[C@H](C)C(=O)N[C@H](CCCNC(=N)N)C(=O)N[C@H](CC(N)=O)C(=O)N[C@H](Cc1ccccc1)C(=O)N[C@H](CCSC)C(=O)N[C@H](CCCNC(=N)N)C(N)=O)C(C)C [Peptide 128, Lauryl-rdvarnfmr-NH2] (Lauroyl-[dR][dD][dV][dA][dR][dN][dF][dM][dR]-NH2)
8 µg/mL (≈ 5.34 µM) | >64 µg/mL | >64 µg/mL | >64 µg/mL | 16 µg/mL (≈ 10.7 µM) | >64c ug/mL | 32e ug/mL | CCCCCCCCCCCC(=O)N[C@@H](CCCNC(=N)N)C(=O)N[C@@H](CO)C(=O)N[C@@H](CCCNC(=N)N)C(=O)N[C@@H](Cc1c[nH]c2ccccc12)C(=O)N[C@@H](CCCNC(=N)N)C(=O)N[C@@H](CC(=O)O)C(=O)N[C@H](C(=O)N[C@@H](C)C(=O)N[C@@H](CCCNC(=N)N)C(=O)N[C@@H](CC(N)=O)C(N)=O)C(C)C [Peptide 100, Lauryl-RSRWRDVARN-NH2] (Lauroyl-RSRWRDVARN-NH2)
16 µg/mL (≈ 7.56 µM) | 32 µg/mL (≈ 15.1 µM) | >64 µg/mL | 16 µg/mL (≈ 7.56 µM) | 2 µg/mL (≈ 0.945 µM) | 16c ug/mL | 2e ug/mL | CCCCCCCCCCCCCCCC(=O)NCCCC[C@@H](NC(=O)[C@@H](CCCNC(=N)N)NC(=O)[C@@H](CCSC)NC(=O)[C@@H](Cc1ccccc1)NC(=O)[C@@H](CC(N)=O)NC(=O)[C@@H](CCCNC(=N)N)NC(=O)[C@@H](C)NC(=O)[C@H](NC(=O)[C@@H](CC(=O)O)NC(=O)[C@@H](CCCNC(=N)N)NC(=O)[C@@H](Cc1c[nH]c2ccccc12)NC(=O)[C@@H](CCCNC(=N)N)NC(=O)[C@@H](CO)NC(=O)[C@H](N)CCCNC(=N)N)C(C)C)C(N)=O [Peptide 201, H2N-rsrwrdvarnfmrk(Palmitoyl)-NH2] (H-[dR][dS][dR][dW][dR][dD][dV][dA][dR][dN][dF][dM][dR][dK](Palmitoyl)-NH2)
